Assay results as given in ChEMBL document CHEMBL5230136, “A review: Biologically active 3,4-heterocycle-fused coumarins” (Eur J Med Chem, 2021).

What was measured:
Salmonella typhimurium = assay: Antibacterial activity against Salmonella typhimurium DT104 assessed as zone of inhibition at 100 ug/ml; assay type: functional, Salmonella enterica subsp. enterica serovar Typhimurium; settings: Salmonella enterica, read-out: IZ
Bacillus subtilis = assay: Antibacterial activity against Bacillus subtilis assessed as zone of inhibition at 100 ug/ml; assay type: functional; settings: read-out: IZ
Escherichia coli [1] = assay: Antibacterial activity against Escherichia coli assessed as zone of inhibition at 100 ug/ml; assay type: functional; settings: read-out: IZ
Staphylococcus aureus [2] = assay: Antibacterial activity against Staphylococcus aureus assessed as zone of inhibition at 100 ug/ml; assay type: functional; settings: read-out: IZ
Bacillus cereus = assay: Antibacterial activity against Bacillus cereus assessed as zone of inhibition at 20 mg/ml; assay type: functional; settings: read-out: IZ
Staphylococcus aureus [3] = assay: Antibacterial activity against Staphylococcus aureus assessed as zone of inhibition at 20 mg/ml; assay type: functional; settings: read-out: IZ
Candida albicans = assay: Antifungal activity against Candida albicans assessed as zone of inhibition at 20 mg/ml; assay type: functional; settings: read-out: IZ
Pseudomonas aeruginosa = assay: Antibacterial activity against Pseudomonas aeruginosa assessed as zone of inhibition at 20 mg/ml; assay type: functional; settings: read-out: IZ
Geotrichum candidum = assay: Antifungal activity against Geotrichum candidum assessed as zone of inhibition at 20 mg/ml; assay type: functional; settings: read-out: IZ
Micrococcus luteus = assay: Antibacterial activity against Micrococcus luteus assessed as zone of inhibition at 20 mg/ml; assay type: functional; settings: read-out: IZ
Trichophyton rubrum = assay: Antifungal activity against Trichophyton rubrum assessed as zone of inhibition at 20 mg/ml; assay type: functional; settings: read-out: IZ
Scopulariopsis = assay: Antifungal activity against Scopulariopsis assessed as zone of inhibition at 20 mg/ml; assay type: functional; settings: read-out: IZ
Fusarium oxysporum = assay: Antifungal activity against Fusarium oxysporum assessed as zone of inhibition at 20 mg/ml; assay type: functional; settings: read-out: IZ
Aspergillus flavus = assay: Antifungal activity against Aspergillus flavus assessed as zone of inhibition at 20 mg/ml; assay type: functional; settings: read-out: IZ
Escherichia coli [4] = assay: Antibacterial activity against Escherichia coli assessed as zone of inhibition at 20 mg/ml; assay type: functional; settings: read-out: IZ
Serratia marcescens = assay: Antibacterial activity against Serratia marcescens assessed as zone of inhibition at 20 mg/ml; assay type: functional; settings: read-out: IZ
LS180 = assay: cells; settings: Homo sapiens
Description: Cytotoxicity against human LS180 cells at 50 uM by MTT reduction assay

HeLa = assay: cells; settings: Homo sapiens
Description: Cytotoxicity against human HeLa cells at 50 uM by MTT reduction assay

MCF7 = assay: Cytotoxicity against human MCF7 cells […] by MTT reduction assay; assay type: functional, cell-based
K562 = assay: cells; settings: Homo sapiens
Description: Cytotoxicity against human K562 cells at 50 uM by MTT reduction assay

With `Cc1ccc2c(c1)oc(=O)c1c(-c3cn(-c4ccccc4)nc3-c3ccccc3)cc(-c3c(O)ccc(Cl)c3Cl)nc12` the zone of inhibition at 100 µg/mL (Salmonella typhimurium) was 10 mm, the zone of inhibition at 100 µg/mL (Bacillus subtilis) was 10 mm and the zone of inhibition at 100 µg/mL (Escherichia coli [1]) was 12 mm. For the same molecule, the zone of inhibition at 100 µg/mL (Staphylococcus aureus [2]) was 8 mm.
Work on `CCOC(=O)c1sc2c(c1NC(=O)CCl)c(=O)oc1ccccc12` yielded a zone of inhibition at 20000 µg/mL (Bacillus cereus) of 0 mm, a zone of inhibition at 20000 µg/mL (Staphylococcus aureus [3]) of 8 mm and a zone of inhibition at 20000 µg/mL (Candida albicans) of 10 mm. The zone of inhibition at 20000 µg/mL (Pseudomonas aeruginosa) was 0 mm, the zone of inhibition at 20000 µg/mL (Geotrichum candidum) was 0 mm and the zone of inhibition at 20000 µg/mL (Micrococcus luteus) was 0 mm. It also gave a zone of inhibition at 20000 µg/mL (Trichophyton rubrum) of 0 mm, a zone of inhibition at 20000 µg/mL (Scopulariopsis) of 0 mm and a zone of inhibition at 20000 µg/mL (Fusarium oxysporum) of 0 mm. It also gave a zone of inhibition at 20000 µg/mL (Aspergillus flavus) of 0 mm, a zone of inhibition at 20000 µg/mL (Escherichia coli [4]) of 0 mm and a zone of inhibition at 20000 µg/mL (Serratia marcescens) of 0 mm.
`Cc1ccc2c(c1)oc(=O)c1c(-c3cn(-c4ccccc4)nc3-c3ccccc3)cc(-c3c(O)c(Br)cc(Cl)c3Cl)nc12` gave a zone of inhibition at 100 µg/mL (Salmonella typhimurium) of 22 mm, a zone of inhibition at 100 µg/mL (Bacillus subtilis) of 20 mm and a zone of inhibition at 100 µg/mL (Escherichia coli [1]) of 19 mm. It also gave a zone of inhibition at 100 µg/mL (Staphylococcus aureus [2]) of 21 mm.
In the case of `Cc1ccc2c(c1)oc(=O)c1c(-c3cn(-c4ccccc4)nc3-c3ccccc3)cc(-c3c(O)c(C)cc(I)c3O)nc12`, the zone of inhibition at 100 µg/mL (Salmonella typhimurium) is reported as 12 mm, the zone of inhibition at 100 µg/mL (Bacillus subtilis) is reported as 18 mm and the zone of inhibition at 100 µg/mL (Escherichia coli [1]) is reported as 18 mm. For the same molecule, the zone of inhibition at 100 µg/mL (Staphylococcus aureus [2]) was 15 mm.
`Cc1ccc2c(c1)oc(=O)c1c(-c3cn(-c4ccccc4)nc3-c3ccccc3)cc(-c3c(O)c(Cl)cc(Br)c3O)nc12` was tested, and the zone of inhibition at 100 µg/mL (Salmonella typhimurium) was 12 mm, the zone of inhibition at 100 µg/mL (Bacillus subtilis) was 16 mm and the zone of inhibition at 100 µg/mL (Escherichia coli [1]) was 19 mm. For the same molecule, the zone of inhibition at 100 µg/mL (Staphylococcus aureus [2]) was 18 mm.
`O=C1CCCc2nc3c(c(-c4ccccc4Cl)c21)c(=O)oc1ccccc13` was tested, and the IC50 (LS180) was > 100 µM, the IC50 (HeLa) was > 100 µM and the IC50 (MCF7) was > 100 µM. The IC50 (K562) was > 100 µM.
For `O=C1CCCc2nc3c(c(-c4ccc(Cl)cc4)c21)c(=O)oc1ccccc13`, the IC50 (LS180) was > 100 µM, the IC50 (HeLa) was 37.7 µM and the IC50 (MCF7) was 41.8 µM. It also gave an IC50 (K562) of 37.5 µM.
With `Cc1ccc2c(c1)oc(=O)c1c(-c3cn(-c4ccccc4)nc3-c3ccccc3)cc(-c3c(O)c(Cl)cc(I)c3O)nc12` the zone of inhibition at 100 µg/mL (Salmonella typhimurium) was 16 mm, the zone of inhibition at 100 µg/mL (Bacillus subtilis) was 22 mm and the zone of inhibition at 100 µg/mL (Escherichia coli [1]) was 20 mm. The zone of inhibition at 100 µg/mL (Staphylococcus aureus [2]) was 19 mm.
With `O=C1CCCc2nc3c(c(-c4cccc(Br)c4)c21)c(=O)oc1ccccc13` the IC50 (LS180) was > 100 µM, the IC50 (HeLa) was 83.6 µM and the IC50 (MCF7) was 31.4 µM. The IC50 (K562) was 38.8 µM.
In the case of `CCOC(=O)c1sc2c(c1NC(=O)CNc1ccccc1)c(=O)oc1ccccc12`, the zone of inhibition at 20000 µg/mL (Bacillus cereus) is reported as 0 mm, the zone of inhibition at 20000 µg/mL (Staphylococcus aureus [3]) is reported as 0 mm and the zone of inhibition at 20000 µg/mL (Candida albicans) is reported as 13 mm. For the same molecule, the zone of inhibition at 20000 µg/mL (Pseudomonas aeruginosa) was 0 mm, the zone of inhibition at 20000 µg/mL (Geotrichum candidum) was 11 mm and the zone of inhibition at 20000 µg/mL (Micrococcus luteus) was 0 mm. For the same molecule, the zone of inhibition at 20000 µg/mL (Trichophyton rubrum) was 10 mm, the zone of inhibition at 20000 µg/mL (Scopulariopsis) was 10 mm and the zone of inhibition at 20000 µg/mL (Fusarium oxysporum) was 0 mm. It also gave a zone of inhibition at 20000 µg/mL (Aspergillus flavus) of 12 mm, a zone of inhibition at 20000 µg/mL (Escherichia coli [4]) of 0 mm and a zone of inhibition at 20000 µg/mL (Serratia marcescens) of 0 mm.
With `Cc1ccc2c(c1)oc(=O)c1c(-c3cn(-c4ccccc4)nc3-c3ccccc3)cc(-c3c(O)c(I)c(C)c(Cl)c3Cl)nc12` the zone of inhibition at 100 µg/mL (Salmonella typhimurium) was 12 mm, the zone of inhibition at 100 µg/mL (Bacillus subtilis) was 12 mm and the zone of inhibition at 100 µg/mL (Escherichia coli [1]) was 9 mm. It also gave a zone of inhibition at 100 µg/mL (Staphylococcus aureus [2]) of 15 mm.
`Cc1ccc2c(c1)oc(=O)c1c(-c3cn(-c4ccccc4)nc3-c3ccccc3)cc(-c3c(O)cc(C)c(Cl)c3Cl)nc12` gave a zone of inhibition at 100 µg/mL (Salmonella typhimurium) of 10 mm, a zone of inhibition at 100 µg/mL (Bacillus subtilis) of 14 mm and a zone of inhibition at 100 µg/mL (Escherichia coli [1]) of 8 mm. The zone of inhibition at 100 µg/mL (Staphylococcus aureus [2]) was 7 mm.
For `Cc1ccc2c(c1)oc(=O)c1c(-c3cn(-c4ccccc4)nc3-c3ccccc3)cc(-c3ccc(Cl)cc3Cl)nc12`, the zone of inhibition at 100 µg/mL (Salmonella typhimurium) was 19 mm, the zone of inhibition at 100 µg/mL (Bacillus subtilis) was 19 mm and the zone of inhibition at 100 µg/mL (Escherichia coli [1]) was 21 mm. It also gave a zone of inhibition at 100 µg/mL (Staphylococcus aureus [2]) of 16 mm.
`Cc1ccc2c(c1)oc(=O)c1c(-c3cn(-c4ccccc4)nc3-c3ccccc3)cc(-c3c(O)ccc(Cl)c3O)nc12` gave a zone of inhibition at 100 µg/mL (Salmonella typhimurium) of 20 mm, a zone of inhibition at 100 µg/mL (Bacillus subtilis) of 18 mm and a zone of inhibition at 100 µg/mL (Escherichia coli [1]) of 21 mm. It also gave a zone of inhibition at 100 µg/mL (Staphylococcus aureus [2]) of 19 mm.
Work on `Cc1ccc2c(c1)oc(=O)c1c(-c3cn(-c4ccccc4)nc3-c3ccccc3)cc(-c3c(O)c(Cl)c(O)c(Cl)c3Cl)nc12` yielded a zone of inhibition at 100 µg/mL (Salmonella typhimurium) of 20 mm, a zone of inhibition at 20000 µg/mL (Staphylococcus aureus [3]) of 22 mm and a zone of inhibition at 100 µg/mL (Bacillus subtilis) of 22 mm. The zone of inhibition at 100 µg/mL (Escherichia coli [1]) was 22 mm, the zone of inhibition at 100 µg/mL (Staphylococcus aureus [2]) was 18 mm and the zone of inhibition at 20000 µg/mL (Escherichia coli [4]) was 22 mm.
Molecule `O=C(N[C@H](CO)[C@H](O)c1ccc([N+](=O)[O-])cc1)C(Cl)Cl` [CHLORAMPHENICOL] has a zone of inhibition at 20000 µg/mL (Bacillus cereus) of 22 mm, a zone of inhibition at 20000 µg/mL (Staphylococcus aureus [3]) of 18 mm and a zone of inhibition at 20000 µg/mL (Candida albicans) of 20 mm. The zone of inhibition at 20000 µg/mL (Pseudomonas aeruginosa) was 18 mm, the zone of inhibition at 20000 µg/mL (Geotrichum candidum) was 24 mm and the zone of inhibition at 20000 µg/mL (Micrococcus luteus) was 20 mm. The zone of inhibition at 20000 µg/mL (Trichophyton rubrum) was 36 mm, the zone of inhibition at 20000 µg/mL (Scopulariopsis) was 20 mm and the zone of inhibition at 20000 µg/mL (Fusarium oxysporum) was 28 mm. For the same molecule, the zone of inhibition at 20000 µg/mL (Aspergillus flavus) was 44 mm, the zone of inhibition at 20000 µg/mL (Escherichia coli [4]) was 18 mm and the zone of inhibition at 20000 µg/mL (Serratia marcescens) was 20 mm.
